Laboratory results from US10344017B2, “Pyrrolcarboxamide derivatives for the inhibition of ERK5” (CANCER RESEARCH TECHNOLOGY LIMITED, priority 2014, dated 2019).
Read-outs that look alike come from different tables or passages of the source.

Target: T1, ERK5 (Homo sapiens, UniProt Q13164)
T1 construct: made in house
Assay: ERK5 IMAP assay (fluorescence polarisation)
Format: biochemical

[1] = average (e.g. geometric mean) where more than one data point, read-out: ERK5 IC50

T1 sequence (Q13164 whole entry): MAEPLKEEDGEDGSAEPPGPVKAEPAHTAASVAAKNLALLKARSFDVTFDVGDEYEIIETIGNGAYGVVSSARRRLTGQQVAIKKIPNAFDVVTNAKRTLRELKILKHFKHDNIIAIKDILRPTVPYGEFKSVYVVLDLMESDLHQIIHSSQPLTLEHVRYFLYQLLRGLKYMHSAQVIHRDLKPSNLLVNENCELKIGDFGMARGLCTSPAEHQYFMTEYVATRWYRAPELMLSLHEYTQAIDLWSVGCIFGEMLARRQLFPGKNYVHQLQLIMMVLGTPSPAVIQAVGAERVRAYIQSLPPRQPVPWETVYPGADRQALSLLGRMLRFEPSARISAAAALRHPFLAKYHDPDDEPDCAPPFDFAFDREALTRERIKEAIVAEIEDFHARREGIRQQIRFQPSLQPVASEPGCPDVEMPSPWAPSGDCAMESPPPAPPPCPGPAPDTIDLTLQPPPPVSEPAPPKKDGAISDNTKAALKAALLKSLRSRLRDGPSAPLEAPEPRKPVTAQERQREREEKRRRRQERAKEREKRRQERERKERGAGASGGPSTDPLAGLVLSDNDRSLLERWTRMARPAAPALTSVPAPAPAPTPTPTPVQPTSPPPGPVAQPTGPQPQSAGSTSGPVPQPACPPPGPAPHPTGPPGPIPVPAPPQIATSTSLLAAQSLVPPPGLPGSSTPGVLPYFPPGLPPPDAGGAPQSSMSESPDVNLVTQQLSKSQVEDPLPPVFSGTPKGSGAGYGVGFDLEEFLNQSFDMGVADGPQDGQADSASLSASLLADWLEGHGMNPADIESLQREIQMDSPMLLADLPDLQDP

IC50 [1] [nM] | IC50 [nM] | SMILES
649 | – | Cc1ccc(F)c(C(=O)c2c[nH]c(C(=O)Nc3cccnc3)c2)c1Cl [Example 175, 4-(2-Chloro-6-fluoro-3-methylbenzoyl)-N-(pyridin-3-yl)-1H-pyrrole-2-carboxamide]
1180 | – | COc1ncccc1NC(=O)c1cc(C(=O)c2c(Cl)ccc(Cl)c2F)c[nH]1 [Example 84, 4-(3,6-Dichloro-2-fluorobenzoyl)-N-(2-methoxypyridin-3-yl)-1H-pyrrole-2-carboxamide]
4050 | – | Cc1ccc(F)c(C(=O)c2c[nH]c(C(=O)Nc3cccnc3)c2)c1 [Example 232, 4-(2-Fluoro-5-methylbenzoyl)-N-(pyridin-3-yl)-1H-pyrrole-2-carboxamide]
207 | – | CCN(CC)CCn1cc(NC(=O)c2cc(C(=O)c3c(Cl)ccc(Cl)c3F)c[nH]2)cn1 [Example 43, 4-(3,6-Dichloro-2-fluorobenzoyl)-N-(1-(2-(diethylamino)ethyl)-1H-pyrazol-4-yl)-1H-pyrrole-2-carboxamide]
1800 | – | O=C(Nc1ccncn1)c1cc(C(=O)c2c(F)cccc2Br)c[nH]1 [Example 133, 4-(2-Bromo-6-fluorobenzoyl)-N-(pyrimidin-4-yl)-1H-pyrrole-2-carboxamide]
7760 | – | O=C(Nc1ccnc(Cl)n1)c1cc(C(=O)c2c(F)cccc2Br)c[nH]1 [Example 141, 4-(2-Bromo-6-fluorobenzoyl)-N-(2-chloropyrimidin-4-yl)-1H-pyrrole-2-carboxamide]
2480 | – | Cc1cc(NC(=O)c2cc(C(=O)c3c(Cl)ccc(Cl)c3F)c[nH]2)no1 [Example 58, 4-(3,6-Dichloro-2-fluorobenzoyl)-N-(5-methylisoxazol-3-yl)-1H-pyrrole-2-carboxamide]
264 | – | O=C(NC1CCN(c2ncccn2)CC1)c1cc(C(=O)c2c(F)cccc2Cl)c[nH]1 [Example 10, 4-(2-Chloro-6-fluorobenzoyl)-N-(1-(pyrimidin-2-yl)piperidin-4-yl)-1H-pyrrole-2-carboxamide]
137 | – | CN1CCN(c2cc(NC(=O)c3cc(C(=O)c4c(F)cccc4Cl)c[nH]3)ccn2)CC1 [Example 36, 4-(2-Chloro-6-fluorobenzoyl)-N-(2-(4-methylpiperazin-1-yl)pyridin-4-yl)-1H-pyrrole-2-carboxamide]
2720 | – | CC(C)(C)OC(=O)N1CCC(NC(=O)c2cc(C(=O)c3c(F)cccc3Br)c[nH]2)CC1 [Example 196, tert-Butyl 4-(4-(2-bromo-6-fluorobenzoyl)-1H-pyrrole-2-carboxamido)piperidine-1-carboxylate]
654 | – | O=C(Nc1cncnc1)c1cc(C(=O)c2c(F)cccc2Br)c[nH]1 [Example 145, 4-(2-Bromo-6-fluorobenzoyl)-N-(pyrimidin-5-yl)-1H-pyrrole-2-carboxamide]
298 | – | CS(=O)(=O)N1CCC(NC(=O)c2cc(C(=O)c3c(F)cccc3Cl)c[nH]2)CC1 [Example 8, 4-(2-Chloro-6-fluorobenzoyl)-N-(1-(methylsulfonyl)piperidin-4-yl)-1H-pyrrole-2-carboxamide]
400 | – | O=C(Nc1cccnc1)c1cc(C(=O)c2c(F)ccc(F)c2F)c[nH]1 [Example 206, N-(Pyridin-3-yl)-4-(2,3,6-trifluorobenzoyl)-1H-pyrrole-2-carboxamide]
20.7 | – | CN1CCC(N(C)c2ncc(NC(=O)c3cc(C(=O)c4c(Cl)ccc(Cl)c4F)c[nH]3)cn2)CC1 [Example 105, 4-(3,6-Dichloro-2-fluorobenzoyl)-N-(2-(methyl(1-methylpiperidin-4-yl)amino)pyrimidin-5-yl)-1H-pyrrole-2-carboxamide]
490 | – | Cc1ccc(Cl)c(C(=O)c2c[nH]c(C(=O)NC3CCN(C)CC3)c2)c1F [Example 180, 4-(6-Chloro-2-fluoro-3-methylbenzoyl)-N-(1-methylpiperidin-4-yl)-1H-pyrrole-2-carboxamide]
3460 | – | CCc1ccc(F)c(C(=O)c2c[nH]c(C(=O)Nc3cncnc3)c2)c1F [Example 163, 4-(3-Ethyl-2,6-difluorobenzoyl)-N-(pyrimidin-5-yl)-1H-pyrrole-2-carboxamide]
458 | – | O=C(Nc1cccnc1)c1cc(C(=O)c2c(Cl)ccc(OC(CO)CCl)c2F)c[nH]1 (stereo not shown) [Example 270, 4-(6-Chloro-3-((1-chloro-3-hydroxypropan-2-yl)oxy)-2-fluorobenzoyl)-N-(pyridin-3-yl)-1H-pyrrole-2-carboxamide]
115 | – | CS(=O)(=O)CCNc1ncc(NC(=O)c2cc(C(=O)c3c(Cl)ccc(Cl)c3F)c[nH]2)cn1 [Example 101, 4-(3,6-Dichloro-2-fluorobenzoyl)-N-(2-((2-(methylsulfonyl)ethyl)amino)pyrimidin-5-yl)-1H-pyrrole-2-carboxamide]
7160 | – | O=C(Nc1ccc2cn[nH]c2c1)c1cc(C(=O)c2c(F)cccc2Br)c[nH]1 [Example 157, 4-(2-Bromo-6-fluorobenzoyl)-N-(1H-indazol-6-yl)-1H-pyrrole-2-carboxamide]
1070 | – | O=C(Nc1cncnc1)c1cc(C(=O)c2c(F)ccc(F)c2F)c[nH]1 [Example 207, N-(Pyrimidin-5-yl)-4-(2,3,6-trifluorobenzoyl)-1H-pyrrole-2-carboxamide]

IC50 [1] [nM] | IC50 [nM] | SMILES
1260 | – | O=C(Nc1cccnc1)c1cc(C(=O)c2c(Cl)ccc(OC(CCl)CCl)c2F)c[nH]1 [Example 271, 4-(6-Chloro-3-((1,3-dichloropropan-2-yl)oxy)-2-fluorobenzoyl)-N-(pyridin-3-yl)-1H-pyrrole-2-carboxamide]
1370 | – | C=Cc1ccc(F)c(C(=O)c2c[nH]c(C(=O)Nc3cncnc3)c2)c1F [Example 166, 4-(2,6-Difluoro-3-vinylbenzoyl)-N-(pyrimidin-5-yl)-1H-pyrrole-2-carboxamide]
66.5 | – | CCn1cc(NC(=O)c2cc(C(=O)c3c(Cl)ccc(Cl)c3F)c[nH]2)cn1 [Example 46, 4-(3,6-Dichloro-2-fluorobenzoyl)-N-(1-ethyl-1H-pyrazol-4-yl)-1H-pyrrole-2-carboxamide]
523 | – | O=C(Nc1ccnc(N2CCCC2)c1)c1cc(C(=O)c2c(F)cccc2Cl)c[nH]1 [Example 35, 4-(2-Chloro-6-fluorobenzoyl)-N-(2-(pyrrolidin-1-yl)pyridin-4-yl)-1H-pyrrole-2-carboxamide]
16500 | – | O=C(Nc1cnccc1N1CCCC1)c1cc(C(=O)c2c(F)cccc2Cl)c[nH]1 [Example 92, 4-(2-Chloro-6-fluorobenzoyl)-N-(4-(pyrrolidin-1-yl)pyridin-3-yl)-1H-pyrrole-2-carboxamide]
2940 | – | O=C(Nc1cc[nH]c(=O)n1)c1cc(C(=O)c2c(F)cccc2Cl)c[nH]1 [Example 146, 4-(2-Chloro-6-fluorobenzoyl)-N-(2-oxo-1,2-dihydropyrimidin-4-yl)-1H-pyrrole-2-carboxamide]
23.8 | – | CN1CCC(Nc2ccc(NC(=O)c3cc(C(=O)c4c(Cl)ccc(Cl)c4F)c[nH]3)cn2)CC1 [Example 32, 4-(3,6-Dichloro-2-fluorobenzoyl)-N-(6-((1-methylpiperidin-4-yl)amino)pyridin-3-yl)-1H-pyrrole-2-carboxamide]
569 | – | CN1CCC(NC(=O)c2cc(C(=O)c3c(F)ccc(F)c3F)c[nH]2)CC1 [Example 209, N-(1-Methylpipendin-4-yl)-4-(2,3,6-trifluorobenzoyl)-1H-pyrrole-2-carboxamide]
6050 | – | CCOc1ncccc1NC(=O)c1cc(C(=O)c2c(Cl)ccc(Cl)c2F)c[nH]1 [Example 85, 4-(3,6-Dichloro-2-fluorobenzoyl)-N-(2-ethoxypyridin-3-yl)-1H-pyrrole-2-carboxamide]
12200 | – | O=C(Nc1cccnc1N1CCCC1)c1cc(C(=O)c2c(Cl)ccc(Cl)c2F)c[nH]1 [Example 86, 4-(3,6-Dichloro-2-fluorobenzoyl)-N-(2-(pyrrolidin-1-yl)pyridin-3-yl)-1H-pyrrole-2-carboxamide]
713 | – | O=C(Nc1cccnc1)c1cc(C(=O)c2c(Cl)ccc(F)c2F)c[nH]1 [Example 221, 4-(6-Chloro-2,3-difluorobenzoyl)-N-(pyridin-3-yl)-1H-pyrrole-2-carboxamide]
628 | – | Cc1ccc(F)c(C(=O)c2c[nH]c(C(=O)NC3CCNCC3)c2)c1F [Example 219, 4-(2,6-Difluoro-3-methylbenzoyl)-N-(piperidin-4-yl)-1H-pyrrole-2-carboxamide]
88.8 | – | O=C(Nc1cnc(N2CCNCC2)nc1)c1cc(C(=O)c2c(F)cccc2Cl)c[nH]1 [Example 26, 4-(2-Chloro-6-fluorobenzoyl)-N-(2-(piperazin-1-yl)pyrimidin-5-yl)-1H-pyrrole-2-carboxamide]
401 | – | Cc1cc(NC(=O)c2cc(C(=O)c3c(F)cccc3Cl)c[nH]2)ccn1 [Example 136, 4-(2-Chloro-6-fluorobenzoyl)-N-(2-methylpyridin-4-yl)-1H-pyrrole-2-carboxamide]
5820 | – | O=C(NC1CCNCC1)c1cc(C(=O)c2c(F)cccc2C2CC2)c[nH]1 [Example 203, 4-(2-Cyclopropyl-6-fluorobenzoyl)-N-(piperidin-4-yl)-1H-pyrrole-2-carboxamide]
– | 900 | O=C(Nc1ccncc1)c1cc(C(=O)c2c(F)cccc2F)c[nH]1 [Example 121, 4-(2,6-Difluorobenzoyl)-N-(pyridin-4-yl)-1H-pyrrole-2-carboxamide]
610 | – | CCc1ccc(F)c(C(=O)c2c[nH]c(C(=O)NC3CCN(C)CC3)c2)c1F [Example 164, 4-(3-Ethyl-2,6-difluorobenzoyl)-N-(1-methylpiperidin-4-yl)-1H-pyrrole-2-carboxamide]
1380 | – | CCOc1ccncc1NC(=O)c1cc(C(=O)c2c(Cl)ccc(Cl)c2F)c[nH]1 [Example 97, 4-(3,6-Dichloro-2-fluorobenzoyl)-N-(4-ethoxypyridin-3-yl)-1H-pyrrole-2-carboxamide]
16.6 | – | COc1ccc(Cl)c(C(=O)c2c[nH]c(C(=O)Nc3cnn(Cc4cccnc4)c3)c2)c1F [Example 66, 4-(6-Chloro-2-fluoro-3-methoxybenzoyl)-N-(1-(pyridin-3-ylmethyl)-1H-pyrazol-4-yl)-1H-pyrrole-2-carboxamide]
2390 | – | Cc1ncccc1NC(=O)c1cc(C(=O)c2c(F)cccc2Br)c[nH]1 [Example 149, 4-(2-Bromo-6-fluorobenzoyl)-N-(2-methylpyridin-3-yl)-1H-pyrrole-2-carboxamide]
